Laboratory results as given in patent US9452154B2, “Methods for treating HCV” (Gilead Sciences, Inc., priority 2010, dated 2016).
Like-named read-outs stand apart in the source and are kept apart here.

What was measured:
[1] = tested on: HCV genotype 1a replicon; experiment: Biological Example 3: HCV genotype 1a replicon assay, EC50; assay type: cell-based; details: Hepatitis C virus, 72 h, 3 days, read-out: EC50
Procedure: The HCV genotype 1a replicon cell line used in this study was described previously. The cells were grown in cell culture medium containing Dulbecco's Modified Eagle Medium (DMEM) with GlutaMAX (Gibco, Carlsbad, Calif., Cat#10569-044), supplemented with 10% FBS (HyClone, Logan, Utah, Cat#SH30071.03), 100 Units/mL Penicillin, 100 μg/mL Streptomycin (Gibco, Carlsbad, Calif., Cat#15140-122), and 0.1 mM non-essential amino acids (Gibco, Carlsbad, Calif., Cat#11140-050). Replicon cells were maintained in 0.5 mg/mL Geneticin (Invitrogen, Carlsbad, Calif., Cat#10131-035) to prevent the loss of HCV replicon. The cells were passaged every 3-4 days before reaching confluency.
(§1) [formula] where XC is the fluorescence signal from the compound-treated well; MB is the average fluorescence signal from puromycin-treated wells; MD is the average fluorescence signal from DMSO-treated wells. The anti-HCV replication activity was determined by the luminescence signal generated from the reporter renilla luciferase of the HCV replicon. The percent inhibition on HCV replicon was calculated using equation 1, where XC is the luminescence signal from compound-treated well; MB is average luminescence signal from the ITMN-191-treated wells; MD is the average luminescence signal from DMSO-treated wells.
(§2) Both CC50 and EC50 values were obtained using Pipeline Pilot 5.0 software package (Accelrys, San Diego, Calif.) by nonlinear regression fitting of experimental data to equation 2: […]

[2] = Biological Example 3: cytotoxicity (calcein AM), CC50; assay type: cell-based; details: human, Huh-7 cells carrying a HCV genotype 1a replicon; HCV genotype 1a replicon cells; calcein AM
Procedure: The HCV replicon assay was a multiplex assay which can assess both cytotoxicity and anti-replicon activity from the same well. The CC50 assay was performed first.
The cytotoxicity effect was determined by calcein AM conversion to fluorescent product. The percent cytotoxicity was calculated by equation 1:
as §1, §2

[3] = tested on: NS3 GT1a mutant replicons; assay type: cell-based, HCV
Procedure: (§3) GT1b and GT1a replicons carrying Renilla Luciferase reporter were used to generate the mutant replicons. The mutations were introduced into the replicon construct by site-directed mutagenesis and confirmed by sequencing. Mutant replicon RNAs were generated from DNA by in vitro transcription and transfected into Huh-7 Lunet or C1 cells
(§4) Compounds were serially diluted 1:3 in 100% DMSO (Sigma). These serial dilutions were added to the cells at a 1:200 dilution to achieve a final concentration of 0.5% DMSO in a total volume of 200 μL. […] EC50 values were calculated using Prism.
(§5) For comparison, a fold change of 0-3 is considered “sensitive”, a fold change of 3-10 is considered “low”, a fold change of 10-50 is considered “medium” and a fold change of greater than […] is considered “high”.

[4] = tested on: NS3 GT1b mutant replicons; assay type: cell-based, HCV
Procedure: as §3, §4, §5

[5] = tested on: GT1b and GT1a mutant replicons; experiment: Biological Example 8: summary of cross resistance of mutant replicons; assay type: cell-based, HCV; details: triple class mutants that confer resistance to PI, NS5A and Compound 1
Procedure: as §3, §4, §5

[6] = tested on: Huh-7 cells carrying a HCV genotype 1a replicon; experiment: Biological Example 3: cytotoxicity in combination studies (MacSynergy II); details: in combination with Compound 4
[7] = tested on: HCV genotype 1a replicon; experiment: Biological Example 3: antiviral combination studies with Compound 4 (MacSynergy II); details: in combination with Compound 4
[8] = tested on: GT-1b Huh-lunet cells; experiment: Biological Example 4: antiviral combination studies with Compound 5 (MacSynergy II); assay type: cell-based, HCV; details: in combination with Compound 5, 1b replicon cells
[9] = tested on: HCV 1b replicon system; experiment: Biological Example 5: antiviral combination studies with Compound 6 (MacSynergy II); assay type: cell-based; details: in combination with Compound 6

CC1=CC[C@H](C(=O)N(c2cc(C#CC(C)(C)C)sc2C(=O)O)[C@H]2CC[C@](O)(CO[C@H]3CCOC3)CC2)CC1 [Compound 5, 5-(3,3-dimethylbut-1-yn-1-yl)-3-[(cis-4-hydroxy-4-{[(3S)-tetrahydrofuran-3-yloxy]methyl}cyclohexyl){[(1R)-4-methylcyclohex-3-en-1-yl]carbonyl}amino]thiophene-2-carboxylic acid]
EC50 [1]: 15 ± 2.4 nM
CC50 at 3 days [2]: > 44400 nM
fold change in EC50 vs wild-type GT1a ([3]; mutant A156T): 0.4 fold
fold change in EC50 vs wild-type GT1a ([3]; mutant D168A): 1.1 fold
fold change in EC50 vs wild-type GT1a ([3]; mutant D168E): 0.7 fold
fold change in EC50 vs wild-type GT1a ([3]; mutant D168G): 1.0 fold
fold change in EC50 vs wild-type GT1a ([3]; mutant D168H): 1.1 fold
fold change in EC50 vs wild-type GT1a ([3]; mutant D168N): 1.3 fold
fold change in EC50 vs wild-type GT1a ([3]; mutant D168V): 1.1 fold
fold change in EC50 vs wild-type GT1a ([3]; mutant D168Y): 0.7 fold
fold change in EC50 vs wild-type GT1a ([3]; mutant R155I): 0.7 fold
fold change in EC50 vs wild-type GT1a ([3]; mutant R155K): 0.8 fold
fold change in EC50 vs wild-type GT1a ([3]; mutant R155K + L31M): 0.4 fold
fold change in EC50 vs wild-type GT1a ([3]; mutant R155K + L31M + Y448H): 0.3 fold
fold change in EC50 vs wild-type GT1a ([3]; mutant R155K + M28T): 0.8 fold
fold change in EC50 vs wild-type GT1a ([3]; mutant R155K + M28T + Y448H): 0.3 fold
fold change in EC50 vs wild-type GT1a ([3]; mutant R155K + Q30H + Y448H): 0.5 fold
fold change in EC50 vs wild-type GT1a ([3]; mutant R155K + Q30R): 1.5 fold
fold change in EC50 vs wild-type GT1a ([3]; mutant R155K + Y93H): 0.6 fold
fold change in EC50 vs wild-type GT1a ([3]; mutant R155K + Y488H (first line, r20)): 1.0 fold
fold change in EC50 vs wild-type GT1a ([3]; mutant R155K + Y488H (second line, r26)): 0.6 fold
fold change in EC50 vs wild-type GT1a ([3]; mutant R155M): 0.7 fold
fold change in EC50 vs wild-type GT1a ([3]; mutant R155S): 0.5 fold
fold change in EC50 vs wild-type GT1a ([3]; mutant R155T): 0.6 fold
fold change in EC50 vs wild-type GT1a ([3]; mutant R155W): 1.0 fold
fold change in EC50 vs wild-type GT1a ([3]; mutant R155k + Q30H): 0.6 fold
fold change in EC50 vs wild-type GT1b ([4]; mutant A156D): 0.8 fold
fold change in EC50 vs wild-type GT1b ([4]; mutant A156G): 0.8 fold
fold change in EC50 vs wild-type GT1b ([4]; mutant A156T): 0.7 fold
fold change in EC50 vs wild-type GT1b ([4]; mutant A156V): 0.8 fold
fold change in EC50 vs wild-type GT1b ([4]; mutant D168A): 0.9 fold
fold change in EC50 vs wild-type GT1b ([4]; mutant D168E): 0.9 fold
fold change in EC50 vs wild-type GT1b ([4]; mutant D168E + L31V + Y448H): 0.8 fold
fold change in EC50 vs wild-type GT1b ([4]; mutant D168E + Y93H + Y448H): 0.5 fold
fold change in EC50 vs wild-type GT1b ([4]; mutant D168E + Y448H): 0.4 fold
fold change in EC50 vs wild-type GT1b ([4]; mutant D168G): 0.8 fold
fold change in EC50 vs wild-type GT1b ([4]; mutant D168H): 1.0 fold
fold change in EC50 vs wild-type GT1b ([4]; mutant D168H + C445F): 0.4 fold
fold change in EC50 vs wild-type GT1b ([4]; mutant D168L + C445F): 0.2 fold
fold change in EC50 vs wild-type GT1b ([4]; mutant D168N): 1.1 fold
fold change in EC50 vs wild-type GT1b ([4]; mutant D168T): 1.0 fold
fold change in EC50 vs wild-type GT1b ([4]; mutant D168V): 1.3 fold
fold change in EC50 vs wild-type GT1b ([4]; mutant D168V + C445F): 0.3 fold
fold change in EC50 vs wild-type GT1b ([4]; mutant D168V + L31V + Y448H): 0.6 fold
fold change in EC50 vs wild-type GT1b ([4]; mutant D168V + Y93H + Y448H): 0.6 fold
fold change in EC50 vs wild-type GT1b ([4]; mutant D168V + Y448H): 0.5 fold
fold change in EC50 vs wild-type GT1b ([4]; mutant D168Y): 1.1 fold
fold change in EC50 vs wild-type GT1b ([4]; mutant L31V + D168E): 1.3 fold
fold change in EC50 vs wild-type GT1b ([4]; mutant L31V + D168V): 1.1 fold
fold change in EC50 vs wild-type GT1b ([4]; mutant R155C): 0.6 fold
fold change in EC50 vs wild-type GT1b ([4]; mutant R155G): 0.8 fold
fold change in EC50 vs wild-type GT1b ([4]; mutant R155K): 1.2 fold
fold change in EC50 vs wild-type GT1b ([4]; mutant R155L): 0.8 fold
fold change in EC50 vs wild-type GT1b ([4]; mutant R155Q): 0.6 fold
fold change in EC50 vs wild-type GT1b ([4]; mutant R155W): 0.5 fold
fold change in EC50 vs wild-type GT1b ([4]; mutant Y93H + D168E): 1.0 fold
fold change in EC50 vs wild-type GT1b ([4]; mutant Y93H + D168V): 0.5 fold
susceptibility of mutants [5]: susceptible
Antagonism Volume (cytotoxicity) [6]: −10 ± 7 nM^2%
Interaction (cytotoxicity) [6]: Additivity (Additivity: ≦25 and >−25 nM^2%)
Synergy Volume (cytotoxicity) [6]: 15 ± 8 nM^2%
Antagonism Volume [7]: −1 ± 3 nM^2%
Synergy Volume [7]: 26 ± 28 nM^2%

COc1ccc2c(O[C@@H]3C[C@H]4C(=O)N[C@]5(P(=O)(O)Cc6c(F)cccc6F)C[C@H]5CCCCCCC[C@H](NC(=O)OC5CCCC5)C(=O)N4C3)cc(-c3csc(NC(C)C)n3)nc2c1Cl [Compound 2, (2R,6S,13aR,14aS,16aS)-2-(8-chloro-2-(2-(isopropylamino)thiazol-4-yl)-7-methoxyquinolin-4-yloxy)-6-(cyclopentyloxycarbonylamino)-5,16-dioxooctadecahydrocyclopropa[e]pyrrolo[1,2-a][1,4]diazacyclopentadecin-14a-yl(2,6-difluorobenzyl)phosphinic acid]
EC50 [1]: 496 ± 135 nM
CC50 at 3 days [2]: > 22200 nM
Interaction [8]: Additive
Synergy Volume [8]: 22 ± 12 nM^2
Interaction [9]: Moderate Synergy
Antagonism Volume (cytotoxicity) [6]: 0 ± 0 nM^2%
Interaction (cytotoxicity) [6]: Additivity (Additivity: ≦25 and >−25 nM^2%)
Synergy Volume (cytotoxicity) [6]: 17 ± 14 nM^2%
Antagonism Volume [7]: −2 ± 3 nM^2%
Interaction [7]: Additivity (Additivity: ≦25 and >−25 nM^2%)
Synergy Volume [7]: 22 ± 14 nM^2%
